The target of data set [1] is hGal-3 protein (Homo sapiens, UniProt P17931). The data set is described as follows: Competition STD 1H NMR titration against reference ligand TDG (5). Type of data set: binding. To be noted: for Kd: calculated from IC50 with Kd(ref.) of TDG and Lref 4 mM (Equation 2); for Kd / Relative STD Intensity of H-4 of TDG titrated by competitor: 303 K; for Relative STD Intensity of H-4 of TDG titrated by competitor: 40 μM hGal-3, 4 mM TDG (5); for IC50: competitor concentration for 50% displacement of 4 mM TDG (5), 40 μM hGal-3, exponential fit; for Relative Affinity, Kd (ref.)/Kd (comp.): referenced to TDG (5), times stronger binding than TDG. From the text:
The competition STD NMR method provides an opportunity to characterize moderately and strongly bound protein–ligand systems (KD = 10^−6 M − 10^−9 M), where the determination is not feasible in direct STD experiment due to kinetic reasons. In the competition experiment, the concentration of the target protein and the reference ligand is kept at a constant level. An STD spectrum of the starting sample state is obtained. Then, by adding the competitive ligand in increasing concentration step-by-step, the resonance signal changes in the STD spectra can be monitored. If the competitor ligand binds strongly to the target protein, a decrease in the STD signal intensities of the reference ligand is observed. If the IC50 value is reached before the equimolar ratio of the reference and the competitor ligand, it can be concluded that the competitor binds more strongly than the selected reference compound to the protein. The strength of the interaction can be quantified by the determination of the dissociation constant value (KD).
By plotting the relative STD ^1H NMR signal intensities of the H-4 proton of the reference compound (5) as a function of the concentration of the given competitor ligand, the IC50 values can be determined (Figure 4). The IC50 value gives the concentration of the competitor ligand required to halve the signal intensity of the reference ligand in the STD spectrum, so it provides the competitor concentration required for 50% displacement of the reference compound (5). IC50 values were calculated based on the equation of the exponential function fitted to the points measured.
The dissociation constant of the interaction was calculated according to the following equation (Equation (1)):(1) Kd(ref.)=Lref×Kd(comp.)/IC50−Kd(comp.)
By rearranging this equation, the Kd value of the competitor ligand (Kd(comp.)) can be obtained (Equation (2)):(2) Kd(comp.)=Kd(ref.)×IC50/Lref+Kd(ref.) where Kd(ref.) refers to the dissociation constant of the reference ligand, Lref is the concentration of the reference ligand, Kd(comp.) is the dissociation constant of the competitor compound, and IC50 is the concentration of the competitor compound at half-signal intensity.

The conditions of data set [2]: for Aggregation during the series of STD titration experiments: up to 1:1 reference and competition ligand ratio (4 mM).
Protocol: We chose the TDG (5), a well-known, moderately bound ligand of hGal-3, as a reference ligand for our competition STD ^1H NMR experiments. As a first step, we recorded an STD ^1H NMR spectrum on the starting sample, which always contained 40 μM hGal-3 protein and 4 mM TDG (1:100 protein reference ligand ratio). Then, the titration was started by adding the synthesized competitor ligand into the NMR sample step-by-step, and we performed STD experiments on each solution composition. […] Thus, the 100% STD effect was determined as the H-4 intensity value of TDG (5) in the initial sample state, and its relative decrease caused by adding the competitor ligand in increasing concentration was measured in each titration step (Table 1).
All ^1H STD NMR experiments were recorded on a Bruker Avance Neo 700 MHz spectrometer equipped with a 5 mm z-gradient (TCI) triple-tuned Prodigy cryoprobe. The measurements were performed at a temperature of 303 K. The data acquisition and processing were performed with TopSpin 3.6.2 and 4.1.1 software. Samples were prepared in 10 mM phosphate buffer solution (140 mM NaCl/KCl, pH = 7.4) in D2O. The initial sample contained 40 μM of hGal-3 protein and 4 mM of compound 5 for each experiment. Competitor ligands were added to the initial samples from stock solutions of different concentrations so that the smallest volume (2 μL) could be added in each titration step. […] The protein resonances were selectively irradiated in competition STD experiments by Eburp (90°) excitation pulses, with a length of 50 ms each with a maximum B1 field strength of 75 Hz yielding a total irradiation time of 3 s. The off-resonance pulse frequency was set to −40 ppm and the on-resonance frequency to 0 ppm. Off- and on-resonance data were recorded at alternate scans, and the corresponding FIDs were collected in separate memories of subsequent processing files, and STD spectra were produced after subtraction of the two subspectra. Competition STD spectra were typically recorded with 1200 repetitions (NS = 8, L4 = 150) to ensure an adequate signal-to-noise ratio for the analysis.
Data set [3] concerns the target hGal-3. Details: method as in PMID 32955737. To be noted: reference ligand TDG, ITC; cited from earlier work.

Molecules are shown by their SMILES.

Chain of hGal-3 protein (P17931 whole entry): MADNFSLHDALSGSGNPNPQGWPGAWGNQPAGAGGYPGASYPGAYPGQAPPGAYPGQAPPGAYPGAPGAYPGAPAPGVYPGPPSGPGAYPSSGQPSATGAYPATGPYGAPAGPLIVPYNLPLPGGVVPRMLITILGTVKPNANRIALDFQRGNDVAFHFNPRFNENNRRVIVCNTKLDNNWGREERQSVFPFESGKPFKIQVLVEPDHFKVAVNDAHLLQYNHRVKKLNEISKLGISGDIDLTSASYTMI

Broadly, the Kd is the equilibrium constant for the complex coming apart. As usually defined, the IC50 is the concentration that gives 50% inhibition. High values mean weaker potency, low ones greater potency. On to `OC[C@H]1O[C@@H](S[C@@H]2O[C@H](CO)[C@H](O)[C@H](OCc3ccc4ccccc4n3)[C@H]2O)[C@H](O)[C@@H](OCc2ccc3ccccc3n2)[C@H]1O` [Compound 1, Bis-{3-O-[(Quinoline-2-yl)Methyl]-β-D-Galactopyranosyl}-Sulfane], for which the Kd in data set [1] was 1.7 µM. For the same compound, the “Relative STD Intensity of H-4 of TDG titrated by competitor” value (“Relative STD Intensity” below) came out at 78% in data set [1] (competitor 40 μM); 65% in data set [1] (competitor 80 μM); 61% in data set [1] (competitor 100 μM); 33% in data set [1] (competitor 250 μM); 24% in data set [1] (competitor 300 μM); 0% in data set [1] (competitor 4000 μM). Also, the IC50 in data set [1] stood at 134 µM. The “Relative Affinity, Kd (ref.)/Kd (comp.)” value in data set [1] is given as 30. For the same compound, the “Aggregation during the series of STD titration experiments” value in data set [2] is given as “did not observe any aggregation”.

With `OC[C@H]1O[C@@H](S[C@@H]2O[C@H](CO)[C@H](O)[C@H](OCc3ccccc3)[C@H]2O)[C@H](O)[C@@H](OCc2ccccc2)[C@H]1O` [Compound 3, Bis-(3-O-Benzyl-β-D-Galactopyranosyl)-Sulfane], the Kd in data set [1] was 2.19 µM. For the same compound, the “Relative STD Intensity” value in data set [1] (competitor 40 μM) came out at 85%; in data set [1] (competitor 80 μM) it was 75%; in data set [1] (competitor 120 μM) it was 64%; in data set [1] (competitor 160 μM), 50%; in data set [1] (competitor 250 μM), 31%; in data set [1] (competitor 400 μM), 28%. Further, in data set [1] (competitor 4000 μM), the “Relative STD Intensity” value is on record as 0%. The compound also gave an IC50 in data set [1] of 172 µM. The “Relative Affinity, Kd (ref.)/Kd (comp.)” value in data set [1] is reported as 24. Further, in data set [2], the “Aggregation during the series of STD titration experiments” value was “did not observe any aggregation”.

As to `OC[C@H]1O[C@@H](S[C@@H]2O[C@H](CO)[C@H](O)[C@H](O)[C@H]2O)[C@H](O)[C@@H](O)[C@H]1O` [Compound 5, Bis-(β-D-Galactopyranosyl)-Sulfane, reference compound], the “Relative Affinity, Kd (ref.)/Kd (comp.)” value in data set [1] is given as 1. For the same compound, the dissociation constant Kd in data set [3] is 51.4 µM.

In the case of `OC[C@H]1O[C@@H](S[C@@H]2O[C@H](CO)[C@H](O)[C@H](OCc3ccc4ccccc4c3)[C@H]2O)[C@H](O)[C@@H](OCc2ccc3ccccc3c2)[C@H]1O` [Compound 2, Bis-{3-O-[(Naphtalene-2-yl)Methyl]-β-D-Galactopyranosyl}-Sulfane], the Kd in data set [1] is 0.55 µM. Besides, the “Relative STD Intensity” value in data set [1] (competitor 10 μM) turned out to be 86%; in data set [1] (competitor 20 μM) it was 68%; in data set [1] (competitor 30 μM), 59%; in data set [1] (competitor 40 μM), 55%; in data set [1] (competitor 50 μM), 37%; in data set [1] (competitor 60 μM) it was 33%. In addition, the “Relative STD Intensity” value in data set [1] (competitor 100 μM) was 24%. In addition, in data set [1], the IC50 was found to be 43 µM. For the same compound, the “Relative Affinity, Kd (ref.)/Kd (comp.)” value in data set [1] was found to be 94. For the same compound, the Solubility result in data set [2] (pH 7.4) is given as “uncertain”.

Source of the values: PMC10855533, “Saturation Transfer Difference NMR and Molecular Docking Interaction Study of Aralkyl-Thiodigalactosides as Potential Inhibitors of the Human-Galectin-3 Protein” (International Journal of Molecular Sciences, 2024).
